In patent US9551722B2, “Amyloid binding agents” (The Regents of the University of California, priority 2009, dated 2017):
Like-named read-outs stand apart in the source and are kept apart here.

Experiments:
[1] = target: T1, aggregated Aβ42 peptides (Homo sapiens, UniProt P05067); experiment: Apparent binding constant (Kd) of probes 27-31, 33 by fluorescence intensity vs concentration; conditions: probe 1.25, 2.5, 5.0, 10 μM in nano-pure water, 5 μM pre-aggregated Aβ42
T1 construct: preaggregated Aβ(1-42) peptides
Protocol: We also measured the apparent binding constants (Kd) of the probes to aggregated Aβ42 peptides. The fluorescent intensity of each probe was measured in concentrations of 1.25, 2.5, 5.0 and 10 μM in nano-pure water, mixed with 5 μM of the pre-aggregated Aβ42 peptides. Zhao, X.; Yang, J., ACS Chem. Neurosc. 1, (10), 655-660. […] On the other hand, a decrease of the Kd value was observed upon chemically altering the electron donor of the ANCA scaffold. […] FIGS. 10A-F show plots of the fluorescence intensity (at λ=525 nm) of compounds 27-31 and […], respectively, as a function of the concentration in the presence of aggregated Aβ42 peptides (5 μM) in solution.

[2] = target: T2, aggregated Aβ(1-42) peptides (Homo sapiens, UniProt P05067); experiment: Fluorescence of probes 27-31, 33 before and after mixing with aggregated Aβ42; assay type: binding; conditions: 4 μM probe; for Em. max (nm) after / Exc. max (nm) after / Fold increase (emission intensity after binding): 5 μM aggregated Aβ(1-42); for Em. max (nm) before / Exc. max (nm) before: nano-pure water (5% DMSO), without Aβ
T2 construct: preaggregated Aβ(1-42) peptides
Protocol: Aggregated Aβ peptide was prepared by dissolving Aβ(1-42) in PBS pH 7.4 to a final concentration of 100 μM. This solution was magnetically stirred at 1200 rpm for 3 days at room temperature. The 100 μM Aβ(1-42) stock solution in PBS was aliquoted and frozen at −10° C. for up to 4 weeks without noticeable change in its property. 15 μL of the pre-aggregated Aβ(1-42) was added to 285 μL of the probe (5% DMSO in nano-pure water) to attain a final concentration of 5 μM Aβ(1-42) and 4 μM of the probe. The solution was transferred to a […] cuvette and the fluorescent measured. FIGS. 9A-F show fluorescence excitation spectra of Cmpds 27-31 and 33, respectively.
LeVine III, H., Protein Sci. 1993, 2, (3), 404-410. Along these lines, we compared the fluorescent properties of 27-31 or 33 in aqueous solution with or without the presence of aggregated Aβ42 peptides. Specifically, we measured the fluorescent properties of each dye at 4 μM concentration in nano pure water, before and after mixing with aggregated Aβ42 peptide (final concentration peptide=5 μM). As it is shown in table 5, in all cases we observed a significant increase (3 to 9-fold) in the intensity of the emission spectra of the probes upon association with the aggregated amyloid peptides. This intensity increase was also accompanied with a blue shift in the emission spectra of around 5-50 nm. […] FIG. 9C provides a representative example of the fluorescent properties of compound 29.

[3] = tested on: amyloid plaques in human tissue from AD cases; experiment: Fluorescence imaging of amyloid plaques in tissue sections; conditions: frozen AD tissue sections, probe solution 30 min, washed with water
Protocol: FIGS. 11A-F depict fluorescence images of amyloid plaques in human tissue from AD cases. After the frozen tissue was sectioned and mounted to a glass slide, the tissue was exposed to a solution containing a fluorescent probe for 30 min. The sample was washed with water to eliminate non-specific staining of the tissue, and imaged using an inverted epi-fluorescence microscope. The images reveal the location of plaques that were stained with A) compound 27, B) compound 28, C) compound 29, D) compound 30, E) compound 31, or F) compound 33.

T2 sequence (P05067 672-713 limits assumed): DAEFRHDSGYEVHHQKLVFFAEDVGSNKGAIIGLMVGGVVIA
T1 sequence (P05067 672-713 limits assumed): as above

Kd [1] | Kd ([1]; read-out: Kd) [µM] | Em. max (nm) after [2] [nm] | Exc. max (nm) after [2] [nm] | Fold increase (emission intensity after binding) [2] [fold] | Em. max (nm) before [2] [nm] | Exc. max (nm) before [2] [nm] | Compound | Staining of amyloid plaques (fluorescence image) [3]
highest affinity | 1.6 |  |  |  |  |  | COCCOCCOCCOCCOC(=O)/C(C#N)=C/c1ccc2cc(N3CCCCC3)ccc2c1 [Compound 31, (E)-2-(2-(2-(2-methoxyethoxyl)ethoxy)ethoxy)ethyl 2-cyano-3-(2-(piperidin-1-yl)napthalen-6-yl) acrylate] | 
highest affinity | 1.6 | 535 | 410 | 7.2 | 540 | 410 | N#C/C(=C\c1ccc2cc(N3CCCCC3)ccc2c1)C(=O)OCC(O)CO (stereo not drawn) [Compound 33, (E)-2,3-dihydroxypropyl 2-cyano-3-(2-(piperidin-1-yl)naphthalene-6-yl)acrylate] | stained

More lines, now with the values behind:

Compound | Kd [1] | Kd ([1]; read-out: Kd) [µM] | Em. max (nm) after [2] [nm] | Exc. max (nm) after [2] [nm] | Fold increase (emission intensity after binding) [2] [fold] | Em. max (nm) before [2] [nm] | Exc. max (nm) before [2] [nm] | Staining of amyloid plaques (fluorescence image) [3]
COCCOCCOCCOC(=O)/C(C#N)=C/c1ccc2cc(N3CCCCC3)ccc2c1 [Compound 27, (E)-2-(2-(2-methoxyethoxyl)ethoxy)ethyl 2-cyano-3-(2-(piperidin-1-yl)napthalen-6-yl)acrylate] | highest affinity | 1.4 |  |  |  |  |  | 
COCCOCCOCCOC(=O)/C(C#N)=C/c1ccc2cc(N3CCN(C)CC3)ccc2c1 [Compound 28, (E)-2-(2-(2-methoxyethoxyl)ethoxy)ethyl 2-cyano-3-(2-(4-methylpiperazin-1-yl)napthalen-6-yl) acrylate] |  | 4.6 | 530 | 385 | 4.9 | 580 | 400 | stained
COCCOCCOCCOC(=O)/C(C#N)=C/c1ccc2cc(N3CCOCC3)ccc2c1 [Compound 29, (E)-2-(2-(2-methoxyethoxyl)ethoxy)ethyl 2-cyano-3-(2-morpholinonapthalen-6-yl)acrylate] |  | 13.8 | 525 | 380 | 5.1 | 530 | 400 | stained
COCCOCCOCCOC(=O)/C(C#N)=C/c1ccc2cc(NCCN3CCOCC3)ccc2c1 [Compound 30, (E)-2-(2-(2-methoxyethoxyl)ethoxy)ethyl 3-(2-(2-morpholinoethylamino)naphthalen-6-yl)-2-cyano acrylate] |  | 6.7 | 540 | 430 | 2.9 | 570 | 430 | stained
